This is an account of results in patent US20110293720A1, “PROGESTIN-CONTAINING DRUG DELIVERY SYSTEM” (BAYER SCHERING PHARMA AKTIENGESELLSCHAFT, priority 2008, published 2011).

The nature of this data set: Particle size distribution (d50/d70/d90, volume distribution, e.g. laser diffraction). The following applies: micronized active ingredient before coating. It is filed as physicochemical. From the text: When used herein, the term “d90 particle size” is intended to mean that the particle size distribution is so that at least 90% of the particles have a particle diameter of less than the specified value, calculated from the volume distribution curve under the presumption of spherical particles. In a similar way, the term “d50 particle size” is intended to mean that the particle size distribution is so that at least 50% of the particles have a particle diameter of less than the specified value, calculated from the volume distribution curve under the presumption of spherical particles.
Therefore, it is important to note that whenever the terms “particle size”, “particle size distribution”, “particle diameter”, “d90”, “d50”, etc., are used herein it should be understood that the specific values or ranges used in connection therewith are always meant to be determined from the volume distribution curve under the presumption of spherical particles. The particle size distribution may be determined by various techniques, e.g. laser diffraction, and will be known to the person skilled in the art. […] The particle size distribution of the particles comprising the progestin and the protective agent, when incorporated in the wafer, may be determined by dissolving the film forming matrix, separation of the protected particles, and drying the protected particles. […]

Molecule `C[C@]12CCC(=O)C=C1[C@@H]1C[C@@H]1[C@H]1[C@@H]3[C@@H]4C[C@@H]4[C@@]4(CCC(=O)O4)[C@@]3(C)CC[C@@H]12` [drospirenone] returned a d50 of 2.2 μm and a d90 of 4.8 μm.
